Measured values taken from patent US20230192701A1, “BICYCLIC KINASE INHIBITORS AND USES THEREOF” (iOmx Therapeutics AG, priority 2020, published 2023).
In brackets after ≈: the same amount, converted by molar mass.

Columns and labels:
human skin explants = settings: topical treatment; Mujahid et al 2017; cited from earlier work
[1] = test system: MPAL-associated AML cell lines (including MOLM-13 and MV4-11); settings: Tarumoto et al 2018; cited from earlier work
[2] = Human hepatocyte stability; format: in vitro ADME; settings: human hepatocytes, 37°C
Description: (§1) Determination of human and mice hepatocyte stability was conducted as follows. 200 uL of the respective hepatocyte cell suspension (2×10e6/ml) was preincubated at 37° C. for 10 min. Then, 200 uL of a 2 uM working stock of the test compound was added to the hepatocyte cell suspension, and the mixture was further incubated at 37° C. and 500 rpm. The reaction was stopped at 30, 60 and 120 min by precipitating 50 uL of the incubation mixture with 200 uL of acetonitrile. Samples were vortexed for 5 min at 1200 rpm and centrifuged at 4000 rpm for 10 min. Intrinsic clearance and half-life were analysed using LC-MS/MS.
(§2) LC-MS/MS was performed for all assays using a C18 column (50*4.6 mm, 5 um) for the CaCo2 assay, or a C18 column (50*4.6 mm, 4 um) for the other assays. The mobile phases used were 10 mM Ammonium Acetate with 0.1% Formic acid (aqueous) and 100% Acetonitrile (organic).

HCT116 tumour cells = experiment: TNF-sensitised cell viability assay (CellTiter-Glo), HCT116; format: cell-based, human; settings: Homo sapiens, HCT-116, read-out: HCT116 IC50 (at 10 ng/ml rHuTNF); 10 ng/ml rHuTNF, 72 h
Description: (§3) Cell viability of HCT116 tumour cells was measured using the CellTiter-Glo (CTG) luminescent cell viability assay (Promega, Madison, USA) according to the manufacturer's protocol. In short, 1×10^3 HCT116 cells were seeded in a 384-well plate for 24 h and subsequently treated with different concentrations of compounds and 10 ng/ml rHuTNF for 72 h at 37° C. and 5% CO2. After incubation, CTG reagent was added to the wells and cells were lysed for 10 min. Read-out was performed using the Tecan reader with 0.1 sec counting time. TNF-induced cell killing in human PANC1 and murine MC38 tumour cells was measured analogously to the assay in human HCT116 cells, except that for the PANC1 assay 100 ng/ml rHuTNF and for the MC38 assay 100 ng/ml rMuTNF were used.

[3] = pharmacokinetic study, plasma level after single po or iv administration; format: in vivo, male CD1 mice; settings: mice
Description: Screening PK properties of compounds of Formula (I) are additionally determined, including plasma and free plasma concentration, as well as Cmax. For example, the free concentration of compound after a dose of eg 30 mg/kg po (per os) administered mice can be determined for certain time points after administrations.
To further investigate PK properties of kinase inhibitors of Formula (I), the compounds are tested for in vivo drug exposure and potency in a full pharmacokinetic study with oral administration (per os, po).
The experimental procedure and the determination of the pharmacokinetic parameters are investigated after single administration of each compound per gavage in male CD1 mice (Intonation Research Laboratories (Hyderabad, India)). The compounds are diluted in 5% DMSO+5% Solutol+90% water. Plasma level (eg sampling 0.25 h; 0.5 h; 1 h; 1.5 h; 2 h; 4 h; 6 h; 12 h; 24 h after drug administration) of the compounds are analysed by LC-MS/MS and pharmacokinetic parameters are determined using non-compartmental analysis and nominal dose levels of eg 30 mg/kg po and 1 mg/kg iv. Three animals are analysed per time point and each mouse is used for three plasma samplings in total.

MC38 tumour cells = experiment: TNF-sensitised cell viability assay (CellTiter-Glo), MC38; format: cell-based, murine; settings: Mus musculus, MC-38, read-out: MC38 IC50 (at 100 ng/ml rMuTNF); 100 ng/ml rMuTNF, 72 h
Description: as §3

[4] = Human liver microsomal stability; format: in vitro ADME; settings: pH 7.4; human liver microsomes, NADPH, 37°C
Description: (§4) Briefly, human and liver microsomal stability was determined by pre-incubation of 2.5 uL compound and 75 uL of the respective liver microsomes in potassium phosphate buffer (pH 7.4) at 37° C. After adding of NADPH as cofactor and further incubation at 37° C. for 60 min, acetonitrile containing internal standard was added, and the sample was vortexed for 5 min at 1200 rpm and then centrifuged 10 min at 4000 rpm.
as §2

AML = settings: administered intraperitoneally; Tarumoto et al 2020; cited from earlier work
Caco-2 cells monolayer = experiment: CaCo2 permeability and efflux assay; format: in vitro ADME; settings: CaCo2, apical to basal, 120 min
Description: (§5) To determine apparent permeability of the compounds an assay using a Caco-2 cells monolayer (cultured for 21d) in a 24-well format (poly carbonate high pore density plate with 0.4 μm pore size and a 0.7 cm2 active membrane area; Millipore) was performed as followed. 800 uL of DMEM was added to the basal compartment of the 24 well-plate and 60000 CaCo2 cells/well were seeded in the apical wells and incubated in a CO2 incubator at 37° C. for proliferation of cells. Apical to Basal permeability was determined by adding 400 uL of test compound to the apical well and 800 uL of HBSS buffer with 2% BSA to the basal well. 25 uL of basal sample was collected after 120 min and processed as stated below. Basal to Apical permeability was determined by adding 800 uL of test compound to basal well and 400 uL of HBSS buffer with 2% BSA to apical well. 25 uL of apical sample was collected after 120 min and processed as stated below. The samples were processed by diluting the donor samples 1:1 with HBSS containing 2% BSA and the receiver samples 1:1 with HBSS buffer. Samples were then precipitated with 200 uL of acetonitrile containing internal standard, vortexed for 5 min at 1000 rpm, and centrifuged at 4000 rpm for 20 min. 150 uL of supernatant was diluted with 150 uL of water and submitted for LC-MS/MS analysis, and Bi-directional (A-B and B-A) apparent permeability (Papp) was calculated.
as §2

[5] = CaCo2 permeability and efflux assay; format: in vitro ADME; settings: human, Caco-2; CaCo2, mean efflux ratio
Description: as §5, §2

Kinetic solubility assay = format: physicochemical; settings: aqueous buffer, kinetic from dmso stock; PBS buffer pH 7.4, 1.0% DMSO, 24 h at RT
Description: The Kinetic solubility assay was conducted as follows. 4 uL compound of the 50 mM DMSO stock was added to deep well plate containing 396 uL PBS buffer (pH 7.4). The DMSO content in the sample was 1.0%, and the compound concentration 500 μM. The sample plate was vortexed at 800 rpm for 24 h at RT on a thermomixer. At the end of the incubation period, the sample plate was centrifuged at 4000 rpm for 10 mins. 3 uL of supernatant was transferred to well containing 297 uL of ISTD in Acetonitrile water:50:50, v/v and analysed in LC-MS/MS against a calibration curve (CC).

[6] = Murine plasma protein binding (RED method); format: in vitro ADME; settings: mouse
Description: (§6) Human and mice protein plasma binding was determined using the Plasma Protein Binding by RED Method. Briefly, 200 uL of the respective plasma containing the test compound (10 uM) was spiked into the donor well (RED Chamber) of the insert. 350 uL of PBS was spiked into receiver well (white chamber). The plate was incubated at 37° C. in a thermomixer at 400 rpm for 5 hours. The samples were matrix equilibrated with opposite matrix (25 uL blank buffet/Plasma). Matrix matched samples were precipitated with 200 uL of Acetonitrile containing Internal standard. Samples were vortexed at 1000 rpm for 5 min and centrifuged at 4000 rpm for 10 min. The supernatant was diluted 2 folds with water and % bound and unbound protein and % recovery at 5 h was determined by LC-MS/MS.
as §2

[7] = Human plasma-protein binding (RED method); format: in vitro ADME
Description: as §6, §2

[8] = Mouse liver microsomal stability; format: in vitro ADME; settings: pH 7.4; mouse liver microsomes, NADPH, 37°C
Description: as §4, §2

[9] = Mouse hepatocyte stability; format: in vitro ADME; settings: mouse hepatocytes, 37°C
Description: as §1, §2

PANC1 tumour cells = experiment: TNF-sensitised cell viability assay (CellTiter-Glo), PANC1; format: cell-based, human; settings: Homo sapiens, PANC-1, read-out: PANC IC50 (at 100 ng/ml rHuTNF); 100 ng/ml rHuTNF, 72 h
Description: as §3

| SMILES | eumelanisation in human skin (human skin explants) | viability of MPAL-associated AML cell lines [1] | half-life at 1 uM [2] | IC50 (HCT116 tumour cells) | compound detectable in plasma after 24 h ([3]; 1 mg/kg iv) | compound detectable in plasma after 24 h ([3]; 30 mg/kg po) | IC50 (MC38 tumour cells) | half-life [4] | AML progression in-vivo (AML) | A > B(10 EE-06 cm/s) (Caco-2 cells monolayer) | efflux ratio at 120 min [5] | solubility kinetic at 24 h (Kinetic solubility assay) | recovery at 5 h, 10 uM [6] | recovery at 5 h, 10 uM [7] | half-life [8] | half-life at 1 uM [9] | IC50 (PANC1 tumour cells) |
| --- | --- | --- | --- | --- | --- | --- | --- | --- | --- | --- | --- | --- | --- | --- | --- | --- | --- |
| COc1ccc(N(C(=O)Nc2c(C)cccc2C)c2cc(Nc3ccc(N4CCN(C)CC4)cc3)ncn2)c(OC)c1 [HG-9-91-01] | able to induce eumelanisation | strongly decreases viability | – | – | – | – | – | – | – | – | – | – | – | – | – | – | – |
| COc1ccc(N2C(=O)N(c3c(C)cccc3Cl)Cc3cnc(Nc4ccc(C5CCN(C)CC5)cc4OC)nc32)nc1 [PY1, 3-(2-chloro-6-methylphenyl)-7-((2-methoxy-4-(1-methylpiperidin-4-yl)phenyl)amino)-1-(5-methoxypyridin-2-yl)-3,4-dihydropyrimido[4,5-d]pyrimidin-2(1H)-one, reference compound] | – | – | 10.7 h | 500 to 1000 nM | No PY1 (the prior art compound YKL-05-099) was detectable after 24 h | No PY1 (the prior art compound YKL-05-099) was detectable after 24 h | 500 to 1000 nM | 2.57 h | suppressed AML progression in-vivo | 9.5 10 EE-06 cm/s | 3.2 | 3.6 µM (≈ 2.16 µg/mL) | 42% | 53% | 1.45 h | 1.25 h | 500 to 1000 nM |
